Reference: patent US10086082B2, “Plant steroids and uses thereof” (DAVIDSON LOPEZ LLC, priority 2011, dated 2018)

Tested on: Caco-2 cells
Experiment: Gene expression profiling of Caco-2 cells treated with compounds (Illumina HT-12 arrays, Volcano plots)
Type: cell-based, human
Settings: gene array; for Interleukin-1, beta gene regulation: 24 hours exposure
Description: Gene expression profiles were generated from 2.5 μM and 25 μM treatments of Caco-2 cells (ATCC).
All compounds were individually applied to Caco-2 cells (250,000/well). After RNA isolation of each treatment, the isolated RNAs were individually labeled as cDNA probes and applied to Illumina HT-12 array chips.
Key Genes Affected per Gene Class: Using the Inforsense Suite of Data Analysis tool (IDBS), a total of 36 Volcano plots were generated against 36 gene array assays (triplicate array assays per nontreatment and treatment of compounds). […] Genes were identified on both sides of the volcano plots (shaded in gray in FIG. 2) that were at a correlation coefficient of p<0.05.
The human colon adenocarcinoma cell line Caco-2 was cultured in Dulbecco's Modified Eagle's Medium (Sigma-Aldrich) with 4.5 g/l glucose, L-glutamine, NaHCO3 and pyridoxine HCl supplemented with 1% (vol/vol) nonessential amino acids, 1% Na-pyruvate, 1% penicillin/streptomycin, and 10% (vol/vol) heat inactivated fetal calf serum, all purchased from Gibco BRL. Cell cultures were transferred weekly by trypsinization and incubated at 37° C. in a humidified incubator containing 5% CO2. […] Cells were exposed to each compound, respectively, for 24 hours.
Total RNA was isolated according to the TRIzol manufacturer's instructions (Invitrogen). RNA quality was assessed with a 2100 Bioanalyzer (Agilent). RNA from pooled triplicates of the various cell treatments, all with an RNA integrity number >7, was further purified with Qiagen RNeasy columns. From 300 ng of total RNA, the Illumina TotalPrep RNA Amplification kit (Ambion) was used to generate amplified biotinylated cRNA after reverse transcription by the Eberwine procedure. cRNA (900 ng) was hybridized overnight to Illumina HT-12 BeadArrays, which were then washed and stained with streptavidin-Cy3 (Amersham-Pharmacia Biotech) according to the Illumina protocol. Arrays were scanned on a BeadArray Reader (Illumina).
Specific transcripts within the biotinylated cRNA were measured by fluorescent imaging after direct hybridization to HT-12 bead arrays, which contain 12 arrays per slide, each with an average of 15 beads for each of 48,803 probes measuring 37,846 annotated genes and additional transcripts. Raw measurements of the intensity of each bead were captured directly and processed as “bead-level” for the samples, as described below. For both treated and non-treated samples, measurements were processed as “probe-level” data by GenomeStudio software (Illumina). […]

Row | Compound | Interleukin-1, beta gene regulation | interleukin receptor and interleukins affected | similarity of gene profile to prednisone
1 | CC[C@H](/C=C/[C@@H](C)[C@H]1CC[C@H]2[C@@H]3CC=C4C[C@@H](OC(=O)CCC(=O)OCC(=O)[C@@]5(O)CC[C@H]6[C@@H]7CCC8=CC(=O)C=C[C@]8(C)[C@H]7[C@@H](O)C[C@@]65C)CC[C@]4(C)[C@H]3CC[C@]12C)C(C)C [SE-24, Stigmasterol Prednisolone Succinate Diester] | up-regulated | affected | more similar gene profiles to prednisone
2 | Stigmasterol Triethyleneglycol Prednisolone Succinate [SE-22] | up-regulated | – | –
